ChEMBL document CHEMBL1275492, “In vitro activity of ceftobiprole against pathogens from two phase 3 clinical trials of complicated skin and skin structure infections” (2008)
Converted amounts (≈) assume the structure as drawn. One block for each molecule: values may come before it.

Experiments:
Format in all cases: functional
Bacteroides fragilis = assay: Antibacterial activity against Bacteroides fragilis obtained from complicated skin and skin structure infections by agar dilution method
Prevotella = assay: Antibacterial activity against Prevotella spp. obtained from complicated skin and skin structure infections by agar dilution method
Veillonella = assay: Antibacterial activity against Veillonella spp. obtained from complicated skin and skin structure infections by agar dilution method
[1] = test system: Streptococcus constellatus; assay: Antibacterial activity against Streptococcus constellatus obtained from complicated skin and skin structure infections by agar dilution method
Gemella = assay: Antibacterial activity against Gemella spp. obtained from complicated skin and skin structure infections by agar dilution method
Staphylococcus = assay: Antibacterial activity against methicillin-susceptible, coagulase-negative Staphylococcus obtained from complicated skin and skin structure infections by agar dilution method
Staphylococcus aureus [2] = assay: Antibacterial activity against Staphylococcus aureus obtained from complicated skin and skin structure infections by agar dilution method
Staphylococcus hominis = assay: Antibacterial activity against coagulase-negative Staphylococcus hominis obtained from complicated skin and skin structure infections by agar dilution method
Streptococcus pyogenes = assay: Antibacterial activity against Streptococcus pyogenes obtained from complicated skin and skin structure infections by agar dilution method
Micrococcus = assay: Antibacterial activity against Micrococcus spp. obtained from complicated skin and skin structure infections by agar dilution method
[3] = test system: Staphylococcus haemolyticus; assay: Antibacterial activity against coagulase-negative Staphylococcus haemolyticus obtained from complicated skin and skin structure infections by agar dilution method
[4] = test system: Staphylococcus epidermidis; assay: Antibacterial activity against coagulase-negative Staphylococcus epidermidis obtained from complicated skin and skin structure infections by agar dilution method
Gemella morbillorum = assay: Antibacterial activity against Gemella morbillorum obtained from complicated skin and skin structure infections […]
Enterococcus faecalis = assay: Antibacterial activity against Enterococcus faecalis obtained from complicated skin and skin structure infections by agar dilution method
[5] = test system: Staphylococcus intermedius; assay: Antibacterial activity against Staphylococcus intermedius obtained from complicated skin and skin structure infections by agar dilution method
Enterococcus faecium = assay: Antibacterial activity against Enterococcus faecium obtained from complicated skin and skin structure infections by agar dilution method
Aerococcus viridans = assay: Antibacterial activity against Aerococcus viridans obtained from complicated skin and skin structure infections by agar dilution method
[6] = Antibacterial activity against Streptococcus sp. 'group C' obtained from complicated skin and skin structure infections by agar dilution method
[7] = test system: Staphylococcus lugdunensis; assay: Antibacterial activity against methicillin-resistant, oxacillin-susceptible, coagulase-negative, mecA-positive Staphylococcus lugdunensis obtained from complicated skin and skin structure infections by agar dilution method
Streptococcus mitis = assay: Antibacterial activity against Streptococcus mitis obtained from complicated skin and skin structure infections by agar dilution method
[8] = test system: Staphylococcus lugdunensis; assay: Antibacterial activity against coagulase-negative Staphylococcus lugdunensis obtained from complicated skin and skin structure infections by agar dilution method
Staphylococcus capitis = assay: Antibacterial activity against coagulase-negative Staphylococcus capitis obtained from complicated skin and skin structure infections by agar dilution method
Bacillus = assay: Antibacterial activity against Bacillus spp. obtained from complicated skin and skin structure infections by agar dilution method
Lactococcus lactis = assay: Antibacterial activity against Lactococcus lactis obtained from complicated skin and skin structure infections by agar dilution method
Staphylococcus cohnii = assay: Antibacterial activity against coagulase-negative Staphylococcus cohnii obtained from complicated skin and skin structure infections by agar dilution method
Staphylococcus warneri = assay: Antibacterial activity against coagulase-negative Staphylococcus warneri obtained from complicated skin and skin structure infections by agar dilution method
[9] = Antibacterial activity against Streptococcus sp. 'group G' obtained from complicated skin and skin structure infections by agar dilution method
Staphylococcus aureus [10] = assay: Antibacterial activity against methicillin resistant Staphylococcus aureus obtained from complicated skin and skin structure infections by agar dilution method
Streptococcus agalactiae = assay: Antibacterial activity against Streptococcus agalactiae obtained from complicated skin and skin structure infections by agar dilution method
Staphylococcus aureus [11] = assay: Antibacterial activity against methicillin susceptible Staphylococcus aureus obtained from complicated skin and skin structure infections by agar dilution method
[12] = test system: Staphylococcus saprophyticus; assay: Antibacterial activity against coagulase-negative Staphylococcus saprophyticus obtained from complicated skin and skin structure infections by agar dilution method
Mammaliicoccus sciuri = assay: Antibacterial activity against coagulase-negative Staphylococcus sciuri obtained from complicated skin and skin structure infections by agar dilution method

MIC (Bacteroides fragilis): ≤ 1 µg/mL
MIC (Prevotella): ≤ 1 µg/mL
MIC (Veillonella): ≤ 1 µg/mL
Compound: CO[C@@]1(NC(=O)Cc2cccs2)C(=O)N2C(C(=O)O)=C(COC(N)=O)CS[C@@H]21 [CEFOXITIN]

Compound: CC(=O)NC[C@H]1CN(c2ccc(N3CCOCC3)c(F)c2)C(=O)O1 [LINEZOLID]
MIC50 [1]: 1 µg/mL (≈ 2.96 µM)
MIC90 [1]: 1 µg/mL (≈ 2.96 µM)
MIC50 (Gemella): 1 µg/mL (≈ 2.96 µM)
MIC90 (Gemella): 2 µg/mL (≈ 5.93 µM)
MIC50 (Staphylococcus): 1 µg/mL (≈ 2.96 µM)
MIC90 (Staphylococcus): 1 µg/mL (≈ 2.96 µM)
MIC50 (Staphylococcus aureus [2]): 2 µg/mL (≈ 5.93 µM)
MIC90 (Staphylococcus aureus [2]): 2 µg/mL (≈ 5.93 µM)
MIC50 (Staphylococcus hominis): 1 µg/mL (≈ 2.96 µM)
MIC90 (Staphylococcus hominis): 1 µg/mL (≈ 2.96 µM)
MIC50 (Streptococcus pyogenes): 1 µg/mL (≈ 2.96 µM)
MIC90 (Streptococcus pyogenes): 1 µg/mL (≈ 2.96 µM)
MIC50 (Micrococcus): 1 µg/mL (≈ 2.96 µM)
MIC90 (Micrococcus): 2 µg/mL (≈ 5.93 µM)
MIC50 [3]: 1 µg/mL (≈ 2.96 µM)
MIC90 [3]: 1 µg/mL (≈ 2.96 µM)
MIC50 [4]: 1 µg/mL (≈ 2.96 µM)
MIC90 [4]: 1 µg/mL (≈ 2.96 µM)
MIC50 (Gemella morbillorum): 1 µg/mL (≈ 2.96 µM)
MIC90 (Gemella morbillorum): 2 µg/mL (≈ 5.93 µM)
MIC50 (Enterococcus faecalis): 1 µg/mL (≈ 2.96 µM)
MIC90 (Enterococcus faecalis): 2 µg/mL (≈ 5.93 µM)
MIC50 [5]: ≤ 0.06 µg/mL
MIC90 [5]: 0.06 µg/mL (≈ 0.178 µM)
MIC (Enterococcus faecium): 2 µg/mL (≈ 5.93 µM)
MIC50 (Enterococcus faecium): 2 µg/mL (≈ 5.93 µM)
MIC50 (Aerococcus viridans): 1 µg/mL (≈ 2.96 µM)
MIC90 (Aerococcus viridans): 2 µg/mL (≈ 5.93 µM)
MIC50 [6]: 1 µg/mL (≈ 2.96 µM)
MIC90 [6]: 2 µg/mL (≈ 5.93 µM)
MIC50 [7]: 1 µg/mL (≈ 2.96 µM)
MIC90 [7]: 1 µg/mL (≈ 2.96 µM)
MIC50 (Streptococcus mitis): ≤ 0.06 µg/mL
MIC90 (Streptococcus mitis): 0.06 µg/mL (≈ 0.178 µM)
MIC50 [8]: 1 µg/mL (≈ 2.96 µM)
MIC90 [8]: 1 µg/mL (≈ 2.96 µM)
MIC50 (Staphylococcus capitis): 1 µg/mL (≈ 2.96 µM)
MIC90 (Staphylococcus capitis): 1 µg/mL (≈ 2.96 µM)
MIC50 (Bacillus): 1 µg/mL (≈ 2.96 µM)
MIC90 (Bacillus): 2 µg/mL (≈ 5.93 µM)
MIC50 (Lactococcus lactis): 1 µg/mL (≈ 2.96 µM)
MIC90 (Lactococcus lactis): 2 µg/mL (≈ 5.93 µM)
MIC50 (Staphylococcus cohnii): 1 µg/mL (≈ 2.96 µM)
MIC90 (Staphylococcus cohnii): 1 µg/mL (≈ 2.96 µM)
MIC50 (Staphylococcus warneri): 1 µg/mL (≈ 2.96 µM)
MIC90 (Staphylococcus warneri): 1 µg/mL (≈ 2.96 µM)
MIC [9]: 1 µg/mL (≈ 2.96 µM)
MIC50 [9]: 1 µg/mL (≈ 2.96 µM)
MIC90 [9]: 1 µg/mL (≈ 2.96 µM)
MIC50 (Staphylococcus aureus [10]): 2 µg/mL (≈ 5.93 µM)
MIC90 (Staphylococcus aureus [10]): 2 µg/mL (≈ 5.93 µM)
MIC50 (Streptococcus agalactiae): 1 µg/mL (≈ 2.96 µM)
MIC90 (Streptococcus agalactiae): 1 µg/mL (≈ 2.96 µM)
MIC50 (Staphylococcus aureus [11]): 2 µg/mL (≈ 5.93 µM)
MIC90 (Staphylococcus aureus [11]): 2 µg/mL (≈ 5.93 µM)
MIC50 [12]: 1 µg/mL (≈ 2.96 µM)
MIC90 [12]: 1 µg/mL (≈ 2.96 µM)
MIC50 (Mammaliicoccus sciuri): 1 µg/mL (≈ 2.96 µM)
MIC90 (Mammaliicoccus sciuri): 1 µg/mL (≈ 2.96 µM)

Compound: CN[C@H](CC(C)C)C(=O)N[C@H]1C(=O)N[C@@H](CC(N)=O)C(=O)N[C@H]2C(=O)N[C@H]3C(=O)N[C@H](C(=O)N[C@H](C(=O)O)c4cc(O)cc(O)c4-c4cc3ccc4O)[C@H](O)c3ccc(c(Cl)c3)Oc3cc2cc(c3O[C@@H]2O[C@H](CO)[C@@H](O)[C@H](O)[C@H]2O[C@H]2C[C@](C)(N)[C@H](O)[C@H](C)O2)Oc2ccc(cc2Cl)[C@H]1O [VANCOMYCIN]
MIC50 [1]: 0.5 µg/mL (≈ 0.345 µM)
MIC90 [1]: 0.5 µg/mL (≈ 0.345 µM)
MIC50 (Gemella): 1 µg/mL (≈ 0.69 µM)
MIC90 (Gemella): 1 µg/mL (≈ 0.69 µM)
MIC50 (Staphylococcus): 1 µg/mL (≈ 0.69 µM)
MIC90 (Staphylococcus): 2 µg/mL (≈ 1.38 µM)
MIC50 (Staphylococcus aureus [2]): 1 µg/mL (≈ 0.69 µM)
MIC90 (Staphylococcus aureus [2]): 1 µg/mL (≈ 0.69 µM)
MIC50 (Staphylococcus hominis): 1 µg/mL (≈ 0.69 µM)
MIC90 (Staphylococcus hominis): 2 µg/mL (≈ 1.38 µM)
MIC50 (Streptococcus pyogenes): 0.5 µg/mL (≈ 0.345 µM)
MIC90 (Streptococcus pyogenes): 0.5 µg/mL (≈ 0.345 µM)
MIC50 (Micrococcus): 1 µg/mL (≈ 0.69 µM)
MIC90 (Micrococcus): 1 µg/mL (≈ 0.69 µM)
MIC50 [3]: 1 µg/mL (≈ 0.69 µM)
MIC90 [3]: 2 µg/mL (≈ 1.38 µM)
MIC50 [4]: 1 µg/mL (≈ 0.69 µM)
MIC90 [4]: 2 µg/mL (≈ 1.38 µM)
MIC50 (Gemella morbillorum): 1 µg/mL (≈ 0.69 µM)
MIC90 (Gemella morbillorum): 1 µg/mL (≈ 0.69 µM)
MIC (Enterococcus faecalis): 1 µg/mL (≈ 0.69 µM)
MIC50 (Enterococcus faecalis): 1 µg/mL (≈ 0.69 µM)
MIC90 (Enterococcus faecalis): 2 µg/mL (≈ 1.38 µM)
MIC50 [5]: 1 µg/mL (≈ 0.69 µM)
MIC90 [5]: 1 µg/mL (≈ 0.69 µM)
MIC50 (Enterococcus faecium): 1 µg/mL (≈ 0.69 µM)
MIC50 (Aerococcus viridans): 1 µg/mL (≈ 0.69 µM)
MIC90 (Aerococcus viridans): 1 µg/mL (≈ 0.69 µM)
MIC50 [6]: 0.5 µg/mL (≈ 0.345 µM)
MIC90 [6]: 1 µg/mL (≈ 0.69 µM)
MIC50 [7]: 1 µg/mL (≈ 0.69 µM)
MIC90 [7]: 2 µg/mL (≈ 1.38 µM)
MIC50 (Streptococcus mitis): 1 µg/mL (≈ 0.69 µM)
MIC90 (Streptococcus mitis): 1 µg/mL (≈ 0.69 µM)
MIC50 [8]: 1 µg/mL (≈ 0.69 µM)
MIC90 [8]: 2 µg/mL (≈ 1.38 µM)
MIC50 (Staphylococcus capitis): 1 µg/mL (≈ 0.69 µM)
MIC90 (Staphylococcus capitis): 2 µg/mL (≈ 1.38 µM)
MIC50 (Bacillus): 1 µg/mL (≈ 0.69 µM)
MIC90 (Bacillus): 1 µg/mL (≈ 0.69 µM)
MIC50 (Lactococcus lactis): 1 µg/mL (≈ 0.69 µM)
MIC90 (Lactococcus lactis): 1 µg/mL (≈ 0.69 µM)
MIC50 (Staphylococcus cohnii): 1 µg/mL (≈ 0.69 µM)
MIC90 (Staphylococcus cohnii): 2 µg/mL (≈ 1.38 µM)
MIC50 (Staphylococcus warneri): 1 µg/mL (≈ 0.69 µM)
MIC90 (Staphylococcus warneri): 2 µg/mL (≈ 1.38 µM)
MIC [9]: 0.25 µg/mL (≈ 0.173 µM)
MIC50 [9]: 0.25 µg/mL (≈ 0.173 µM)
MIC90 [9]: 0.5 µg/mL (≈ 0.345 µM)
MIC50 (Staphylococcus aureus [10]): 1 µg/mL (≈ 0.69 µM)
MIC90 (Staphylococcus aureus [10]): 1 µg/mL (≈ 0.69 µM)
MIC50 (Streptococcus agalactiae): 0.5 µg/mL (≈ 0.345 µM)
MIC90 (Streptococcus agalactiae): 0.5 µg/mL (≈ 0.345 µM)
MIC50 (Staphylococcus aureus [11]): 1 µg/mL (≈ 0.69 µM)
MIC90 (Staphylococcus aureus [11]): 1 µg/mL (≈ 0.69 µM)
MIC50 [12]: 1 µg/mL (≈ 0.69 µM)
MIC90 [12]: 2 µg/mL (≈ 1.38 µM)
MIC50 (Mammaliicoccus sciuri): 1 µg/mL (≈ 0.69 µM)
MIC90 (Mammaliicoccus sciuri): 2 µg/mL (≈ 1.38 µM)
